Test results reported in patent US20150148377A1, “Quinoline Derivatives” (NOVARTIS AG, priority 2011, published 2015).

Assays:
PI3K alpha = molecular target: T1, PI3K alpha (Homo sapiens, UniProt P42336); test: Enzymatic PI3K alpha isoform inhibition (lipid kinase activity, Kinase-Glo); type: biochemical; conditions: enzymatic assay
T1 construct: His tag (C); made in house; host or cells: baculovirus; Tn5 (Trichoplusia ni) or TiniPro insect cells
Protocol: The kinase reaction is performed in a final volume of 50 μl per well of a half area COSTAR, 96 well plate. The final concentrations of ATP and phosphatidyl inositol in the assay are 5 μM and 6 μg/mL, respectively. The reaction is started by the addition of PI3 kinase, e.g. PI3 kinase δ.
(§1) In a more preferred assay, the kinase reaction is performed in a final volume of 10 μl per well of a low volume non-binding CORNING, 384 well black plate (Cat. No. #3676). The final concentrations of ATP and phosphatidyl inositol (PI) in the assay are 1 μM and 10 μg/mL, respectively. The reaction is started by the addition of ATP.
(§2) The components of the assay are added per well as follows:
(§3) 50 nl test compounds in 90% DMSO per well, in columns 1-20, 8 concentrations (1/3 and 1/3.33 serial dilution step) in single. • Low control: 50 nl of 90% DMSO in half the wells of columns 23-24 (0.45% in final). • High control: 50 nl of reference compound (e.g. compound of Example 7 in WO 2006/122806) in the other half of columns 23-24 (2.5 μM in final). • Standard: 50 nl of reference compound as just mentioned diluted as the test compounds in columns 21-22. • 20 mL ‘buffer’ are prepared per assay: • 200 μl of 1M TRIS HCl pH7.5 (10 mM in final) • 60 μl of 1M MgCl2 (3 mM in final) • 500 μl of 2M NaCl (50 mM in final) • 100 μl of 10% CHAPS (0.05% in final) • 200 μl of 100 mM DTT (1 mM in final) • 18.94 mL of nanopure water • 10 mL ‘PI’ are prepared per assay: • 200 μl of 1 mg/mL 1-alpha-Phosphatidylinositol (Liver Bovine, Avanti Polar Lipids Cat. No. 840042C MW=909.12) prepared in 3% OctylGlucoside (10 μg/mL in final) • 9.8 mL of ‘buffer’ • 10 mL ‘ATP’ are prepared per assay: • 6.7 μl of 3 mM stock of ATP giving a final concentration of 1 μM per well • 10 mL of ‘buffer’ • 2.5 mL of each PI3K construct are prepared per assay in ‘PI’ with the following final concentration: • 10 nM PI3K alfa EMV B1075 • 25 nM beta EMV BV949 • 10 nM delta EMV BV1060 • 150 nM gamma EMV BV950 • 5 μl of ‘PI/PI3K’ are added per well. • 5 μl ‘ATP’ are added per well to start the reaction. • The plates are then incubated at room temperature for 60 minutes (alfa, beta, delta) or 120 minutes (gamma). • The reaction is terminated by the addition of 10 μl Kinase-Glo (Promega Cat. No. #6714). • The assay plates are read after 10 minutes in Synergy 2 reader (BioTek, Vermont USA) with an integration time of 100 milliseconds and sensitivity set to 191. • Output: The High control is around 60'000 counts and the Low control is 30'000 or lower • This luminescence assay gives a useful Z′ ratio between 0.4 and 0.7
(§4) IC50 is determined by a four parameter curve fitting routine that comes along with “excel fit”. A four parameter logistic equation is used to calculate IC50 values (IDBS XLfit) of the percentage inhibition of each compound at 8 concentrations (usually 10, 3.0, 1.0, 0.3, 0.1, 0.030, 0.010 and 0.003 μM). Alternatively, IC50 values are calculated using idbsXLfit model 204, which is a 4 parameter logistic model.
(§5) Yet alternatively, for an ATP depletion assay, compounds of the formula I to be tested are dissolved in DMSO and directly distributed into a white 384-well plate at 0.5 μl per well. To start the reaction, 10 μl of 10 nM PI3 kinase and 5 μg/mL 1-alpha-phosphatidylinositol (PI) are added into each well followed by 10 μl of 2 μM ATP. The reaction is performed until approx 50% of the ATP is depleted, and then stopped by the addition of 20 μl of Kinase-Glo solution (Promega Corp., Madison, Wis., USA). The stopped reaction is incubated for 5 minutes and the remaining ATP is then detected via luminescence. IC50 values are then determined.

PI3K delta = molecular target: T2, PI3K delta (Homo sapiens, UniProt O00329); test: Enzymatic PI3K delta isoform inhibition (lipid kinase activity, Kinase-Glo); type: biochemical; conditions: enzymatic assay
T2 construct: for the full-length p110-d subunit are generated and fused by overlapping PCR; His tag (C); made in house; host or cells: baculovirus; Tn5 (Trichoplusia ni) or TiniPro insect cells
Protocol: as §1, §2, §3, §4, §5

T1 sequence (P42336 with tags, fused parts or gaps limits assumed): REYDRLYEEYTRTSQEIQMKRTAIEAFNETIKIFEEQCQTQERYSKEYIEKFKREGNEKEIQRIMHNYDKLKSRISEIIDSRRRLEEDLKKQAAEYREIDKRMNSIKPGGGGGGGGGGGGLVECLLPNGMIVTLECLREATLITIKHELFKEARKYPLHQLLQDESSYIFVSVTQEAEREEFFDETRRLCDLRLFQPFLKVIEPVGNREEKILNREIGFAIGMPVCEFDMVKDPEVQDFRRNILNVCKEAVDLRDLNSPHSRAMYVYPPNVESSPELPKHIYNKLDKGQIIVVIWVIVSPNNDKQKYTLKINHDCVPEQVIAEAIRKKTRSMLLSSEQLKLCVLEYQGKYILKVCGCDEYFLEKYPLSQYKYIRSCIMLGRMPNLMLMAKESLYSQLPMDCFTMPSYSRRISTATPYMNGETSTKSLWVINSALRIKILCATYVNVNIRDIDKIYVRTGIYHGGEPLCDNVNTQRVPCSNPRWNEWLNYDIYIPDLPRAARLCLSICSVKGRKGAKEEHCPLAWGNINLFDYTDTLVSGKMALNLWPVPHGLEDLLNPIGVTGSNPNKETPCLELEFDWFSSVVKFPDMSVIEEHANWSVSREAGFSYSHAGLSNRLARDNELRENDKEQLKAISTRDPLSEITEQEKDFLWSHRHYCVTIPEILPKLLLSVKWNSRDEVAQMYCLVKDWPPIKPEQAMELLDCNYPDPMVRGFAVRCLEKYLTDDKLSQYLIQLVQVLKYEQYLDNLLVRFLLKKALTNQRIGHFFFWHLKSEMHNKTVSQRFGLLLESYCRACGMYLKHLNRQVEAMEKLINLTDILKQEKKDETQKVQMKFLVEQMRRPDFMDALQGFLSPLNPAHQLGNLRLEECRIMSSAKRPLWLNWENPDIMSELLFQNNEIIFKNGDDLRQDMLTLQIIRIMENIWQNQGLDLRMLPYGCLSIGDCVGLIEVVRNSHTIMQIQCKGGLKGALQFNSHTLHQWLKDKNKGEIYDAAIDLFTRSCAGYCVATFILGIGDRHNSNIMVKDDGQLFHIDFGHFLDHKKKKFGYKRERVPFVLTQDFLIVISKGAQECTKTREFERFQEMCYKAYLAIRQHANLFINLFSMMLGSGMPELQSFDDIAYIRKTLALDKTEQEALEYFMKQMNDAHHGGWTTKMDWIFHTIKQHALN
T2 sequence (O00329 with tags, fused parts or gaps limits assumed): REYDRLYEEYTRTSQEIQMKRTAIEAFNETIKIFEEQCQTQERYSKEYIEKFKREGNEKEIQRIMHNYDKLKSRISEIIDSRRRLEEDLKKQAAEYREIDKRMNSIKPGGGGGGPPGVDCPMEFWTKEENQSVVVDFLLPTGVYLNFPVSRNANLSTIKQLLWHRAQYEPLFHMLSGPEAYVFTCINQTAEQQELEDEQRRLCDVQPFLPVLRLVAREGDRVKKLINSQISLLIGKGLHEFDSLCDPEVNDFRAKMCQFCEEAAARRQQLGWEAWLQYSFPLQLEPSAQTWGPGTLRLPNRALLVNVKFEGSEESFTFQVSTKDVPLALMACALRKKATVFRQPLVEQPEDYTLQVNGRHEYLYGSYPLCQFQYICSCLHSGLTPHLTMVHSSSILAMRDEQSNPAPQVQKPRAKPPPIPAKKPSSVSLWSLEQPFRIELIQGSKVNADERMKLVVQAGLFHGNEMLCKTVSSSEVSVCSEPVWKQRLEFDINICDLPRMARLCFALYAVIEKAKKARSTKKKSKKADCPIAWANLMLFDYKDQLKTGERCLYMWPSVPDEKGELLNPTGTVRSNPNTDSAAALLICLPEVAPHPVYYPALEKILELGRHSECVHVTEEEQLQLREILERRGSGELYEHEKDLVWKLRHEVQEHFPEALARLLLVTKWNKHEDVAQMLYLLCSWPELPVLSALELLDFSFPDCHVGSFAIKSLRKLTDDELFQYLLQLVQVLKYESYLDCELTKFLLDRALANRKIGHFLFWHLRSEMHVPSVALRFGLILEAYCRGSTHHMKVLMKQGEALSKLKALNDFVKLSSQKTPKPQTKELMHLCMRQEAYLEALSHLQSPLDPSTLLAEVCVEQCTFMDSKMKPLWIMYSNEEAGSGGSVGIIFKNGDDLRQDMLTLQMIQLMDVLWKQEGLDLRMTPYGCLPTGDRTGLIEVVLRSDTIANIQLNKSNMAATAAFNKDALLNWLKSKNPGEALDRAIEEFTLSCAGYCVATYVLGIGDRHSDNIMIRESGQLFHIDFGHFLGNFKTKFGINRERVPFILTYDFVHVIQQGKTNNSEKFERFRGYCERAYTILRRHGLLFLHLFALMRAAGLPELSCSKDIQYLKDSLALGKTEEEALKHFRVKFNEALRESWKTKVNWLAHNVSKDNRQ

SMILES	IC50 (PI3K alpha)	IC50 (PI3K delta)
COc1ncc(-c2ccnc3ccc(O[C@H]4CCN(C(=O)C5CCN(C(C)=O)CC5)C4)cc23)cc1C [Example A27, 1-(4-{(S)-3-[4-(6-Methoxy-5-methyl-pyridin-3-yl)-quinolin-6-yloxy]-pyrrolidine-1-carbonyl}-piperidin-1-yl)-ethanone]	543 nM	14 nM
CS(=O)(=O)c1ncc(-c2ccnc3ccc(O[C@H]4CCN(C(=O)C5CCOCC5)C4)cc23)cc1Cl [Example A28, {(S)-3-[4-(5-Chloro-6-methanesulfonyl-pyridin-3-yl)-quinolin-6-yloxy]-pyrrolidin-1-yl}-(tetrahydro-pyran-4-yl)-methanone]	1390 nM	14 nM
Nc1ncc(-c2ccnc3ccc(O[C@H]4CCN(C(=O)C5CCOCC5)C4)cc23)cc1C(F)(F)F [Example A29, {(S)-3-[4-(6-Amino-5-trifluoromethyl-pyridin-3-yl)-quinolin-6-yloxy]-pyrrolidin-1-yl}-(tetrahydro-pyran-4-yl)-methanone]	30 nM	17 nM
COc1ncc(-c2ccnc3ccc(O[C@H]4CCN(C(=O)c5cn(C)cn5)C4)cc23)cc1C#N [Example A30, 2-Methoxy-5-{6-[(S)-1-(1-methyl-1H-imidazole-4-carbonyl)-pyrrolidin-3-yloxy]-quinolin-4-yl}-nicotinonitrile]	381 nM	19.5 nM
Nc1ncc(-c2ccnc3ccc(O[C@H]4CCN(C(=O)C5CCS(=O)(=O)CC5)C4)cc23)cc1C(F)(F)F [Example A31, {(S)-3-[4-(6-Amino-5-trifluoromethyl-pyridin-3-yl)-quinolin-6-yloxy]-pyrrolidin-1-yl}-(1,1-dioxo-hexahydro-1lambda*6*-thiopyran-4-yl)-methanone]	30 nM	20 nM
COc1ncc(-c2ccnc3ccc(O[C@H]4CCN(C(=O)c5ccc(=O)n(C)c5)C4)cc23)cc1C [Example A32, 5-{(S)-3-[4-(6-Methoxy-5-methyl-pyridin-3-yl)-quinolin-6-yloxy]-pyrrolidine-1-carbonyl}-1-methyl-1H-pyridin-2-one]	851 nM	21 nM
Cc1cc(-c2ccnc3ccc(O[C@H]4CCN(C(=O)C5CCOCC5)C4)cc23)cnc1S(C)(=O)=O [Example A33, {(S)-3-[4-(6-Methanesulfonyl-5-methyl-pyridin-3-yl)-quinolin-6-yloxy]-pyrrolidin-1-yl}-(tetrahydro-pyran-4-yl)-methanone]	3370 nM	25 nM
CCC(=O)N1CC[C@H](Oc2ccc3nccc(-c4cnc(N)c(C(F)(F)F)c4)c3c2)C1 [Example A34, 1-{(S)-3-[4-(6-Amino-5-trifluoromethyl-pyridin-3-yl)-quinolin-6-yloxy]-pyrrolidin-1-yl}-propan-1-one]	35 nM	27 nM
CC(=O)N1CC[C@@H](C(=O)N2CC[C@H](Oc3ccc4nccc(-c5cnc(OC(F)F)c(C)c5)c4c3)C2)C1 [Example A35, 1-((R)-3-{(S)-3-[4-(6-Difluoromethoxy-5-methyl-pyridin-3-yl)-quinolin-6-yloxy]-pyrrolidine-1-carbonyl}-pyrrolidin-1-yl)-ethanone]	1230 nM	29 nM
Cc1cc(-c2ccnc3ccc(O[C@H]4CCN(C(=O)C(C)C)C4)cc23)cnc1S(C)(=O)=O [Example A36, 1-{(S)-3-[4-(6-Methanesulfonyl-5-methyl-pyridin-3-yl)-quinolin-6-yloxy]-pyrrolidin-1-yl}-2-methyl-propan-1-one]	1570 nM	39 nM
CS(=O)(=O)c1ncc(-c2ccnc3ccc(O[C@H]4CCN(C(=O)C5CCOCC5)C4)cc23)cc1C(F)(F)F [Example A37, {(S)-3-[4-(6-Methanesulfonyl-5-trifluoromethyl-pyridin-3-yl)-quinolin-6-yloxy]-pyrrolidin-1-yl}-(tetrahydro-pyran-4-yl)-methanone]	745 nM	43 nM
Cc1cc(-c2ccnc3ccc(O[C@H]4CCN(C(=O)C5CCS(=O)(=O)CC5)C4)cc23)cnc1OC(F)F [Example A38, {(S)-3-[4-(6-Difluoromethoxy-5-methyl-pyridin-3-yl)-quinolin-6-yloxy]-pyrrolidin-1-yl}-(1,1-dioxo-hexahydro-1lambda*6*-thiopyran-4-yl)-methanone]	1650 nM	48 nM
COc1ncc(-c2ccnc3ccc(O[C@H]4CCN(C(=O)c5cn(C)cn5)C4)cc23)cc1C [Example A39, {(S)-3-[4-(6-Methoxy-5-methyl-pyridin-3-yl)-quinolin-6-yloxy]-pyrrolidin-1-yl}-(1-methyl-1H-imidazol-4-yl)-methanone]	189 nM	71 nM
CNc1cc(-c2ccnc3ccc(O[C@H]4CCN(C(=O)C5CCOCC5)C4)cc23)cnc1S(C)(=O)=O [Example A40, {(S)-3-[4-(6-Methanesulfonyl-5-methylamino-pyridin-3-yl)-quinolin-6-yloxy]-pyrrolidin-1-yl}-(tetrahydro-pyran-4-yl)-methanone]	2420 nM	118 nM
COc1ncc(-c2ccnc3ccc(O[C@H]4CCN(C(=O)c5ccc(=O)[nH]c5)C4)c(C)c23)cc1C(F)F [Example B2, 5-{(S)-3-[4-(5-Difluoromethyl-6-methoxy-pyridin-3-yl)-5-methyl-quinolin-6-yloxy]-pyrrolidine-1-carbonyl}-1H-pyridin-2-one]	33 nM	4 nM
COc1ncc(-c2ccnc3ccc(O[C@H]4CCN(C(=O)C5CCS(=O)(=O)CC5)C4)c(C)c23)cc1C(F)F [Example B4, {(S)-3-[4-(5-Difluoromethyl-6-methoxy-pyridin-3-yl)-5-methyl-quinolin-6-yloxy]-pyrrolidin-1-yl}-(1,1-dioxo-hexahydro-1lambda*6*-thiopyran-4-yl)-methanone]	177 nM	5 nM
Cc1cc(-c2ccnc3ccc(O[C@H]4CCN(C(=O)C5CCOCC5)C4)c(C)c23)cnc1S(C)(=O)=O [Example B5, {(S)-3-[4-(6-Methanesulfonyl-5-methyl-pyridin-3-yl)-5-methyl-quinolin-6-yloxy]-pyrrolidin-1-yl}-(tetrahydro-pyran-4-yl)-methanone]	664 nM	11 nM
COc1ncc(-c2ccnc3ccc(O[C@H]4CCN(C(=O)C5CCS(=O)(=O)CC5)C4)c(C)c23)cc1CF [Example B6, (1,1-Dioxo-hexahydro-1lambda*6*-thiopyran-4-yl)-{(S)-3-[4-(5-fluoromethyl-6-methoxy-pyridin-3-yl)-5-methyl-quinolin-6-yloxy]-pyrrolidin-1-yl}-methanone]	294 nM	12 nM
CC(=O)N1CC[C@@H](C(=O)N2CC[C@H](Oc3ccc4nccc(-c5cnc(OC(F)F)c(C)c5)c4c3C)C2)C1 [Example B7, 1-((R)-3-{(S)-3-[4-(6-Difluoromethoxy-5-methyl-pyridin-3-yl)-5-methyl-quinolin-6-yloxy]-pyrrolidine-1-carbonyl}-pyrrolidin-1-yl)-ethanone]	869 nM	20 nM
